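48-hour exposure; five concentrations; linearly interpolated endpoints. GI50 is the concentration that inhibits growth by half.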 Activity calls are given as the source filed them. Rule as the data show it: active = GI50 up to about 1.1 µM and inactive = higher.
Tests used:
Test in all cases: inhibition of tumour cell growth, NCI panel, 48 h
A498 = system: A498
A549 = system: A549
CCRF-CEM = system: CCRF-CEM
COLO 205 = system: COLO 205
DLD-1 = system: DLD-1
DMS-273 = system: DMS-273
EKVX = system: EKVX
HCC 2998 = system: HCC 2998
HCT-116 = system: HCT-116
HCT-15 = system: HCT-15
HL-60 = system: HL-60
HOP-18 = system: HOP-18
HOP-62 = system: HOP-62
HOP-92 = system: HOP-92
HT-29 = system: HT-29
IGROV-1 = system: IGROV-1
K562 = system: K562
KM-20L2 = system: KM-20L2
KM12 = system: KM12
LOX IMVI = system: LOX IMVI
M19-MEL = system: M19-MEL
MCF7 = system: MCF7
MOLT-4 = system: MOLT-4
Malme-3M = system: Malme-3M
NCI-H226 = system: NCI-H226
NCI-H23 = system: NCI-H23
NCI-H460 = system: NCI-H460
NCI-H522 = system: NCI-H522
NCI/ADR-RES = system: NCI/ADR-RES
OVCAR-3 = system: OVCAR-3
OVCAR-4 = system: OVCAR-4
OVCAR-5 = system: OVCAR-5
OVCAR-8 = system: OVCAR-8
RPMI-8226 = system: RPMI-8226
RXF 393 = system: RXF 393
SF-268 = system: SF-268
SF-295 = system: SF-295
SF-539 = system: SF-539
SK-MEL-28 = system: SK-MEL-28
SK-MEL-2 = system: SK-MEL-2
SK-MEL-5 = system: SK-MEL-5
SK-OV-3 = system: SK-OV-3
SN12C = system: SN12C
SNB-19 = system: SNB-19
SNB-75 = system: SNB-75
SNB-78 = system: SNB-78
SW-620 = system: SW-620
U-251 = system: U-251
UACC-257 = system: UACC-257
UACC-62 = system: UACC-62
UO-31 = system: UO-31
XF498 = system: XF498
786-0 = system: 786-0
ACHN = system: ACHN
LXFL 529 = system: LXFL 529
M14 = system: M14
SR = system: SR
TK-10 = system: TK-10

O=S(=O)(O)c1cc2ccc1/C=C\c1ccc(cc1S(=O)(=O)O)/N=N\c1ccc(c(S(=O)(=O)O)c1)/C=C\c1ccc(cc1S(=O)(=O)O)/N=N\2
GI50 (A498): > 100 µM (inactive)
GI50 (A549): > 100 µM (inactive)
GI50 (CCRF-CEM): > 100 µM (inactive)
GI50 (COLO 205): > 100 µM (inactive)
GI50 (DLD-1): > 100 µM (inactive)
GI50 (DMS-273): > 100 µM (inactive)
GI50 (EKVX): > 100 µM (inactive)
GI50 (HCC 2998): > 100 µM (inactive)
GI50 (HCT-116): > 100 µM (inactive)
GI50 (HCT-15): > 100 µM
GI50 (HL-60): > 100 µM (inactive)
GI50 (HOP-18): > 100 µM (inactive)
GI50 (HOP-62): > 100 µM (inactive)
GI50 (HOP-92): > 100 µM (inactive)
GI50 (HT-29): > 100 µM (inactive)
GI50 (IGROV-1): > 100 µM (inactive)
GI50 (K562): > 100 µM (inactive)
GI50 (KM-20L2): > 100 µM (inactive)
GI50 (KM12): > 100 µM (inactive)
GI50 (LOX IMVI): > 100 µM (inactive)
GI50 (M19-MEL): > 100 µM (inactive)
GI50 (MCF7): > 100 µM (inactive)
GI50 (MOLT-4): > 100 µM (inactive)
GI50 (Malme-3M): > 100 µM (inactive)
GI50 (NCI-H226): > 100 µM (inactive)
GI50 (NCI-H23): > 100 µM (inactive)
GI50 (NCI-H460): > 100 µM (inactive)
GI50 (NCI-H522): > 100 µM (inactive)
GI50 (NCI/ADR-RES): > 100 µM (inactive)
GI50 (OVCAR-3): > 100 µM (inactive)
GI50 (OVCAR-4): > 86.1 µM (inactive)
GI50 (OVCAR-5): > 100 µM (inactive)
GI50 (OVCAR-8): > 100 µM (inactive)
GI50 (RPMI-8226): > 100 µM (inactive)
GI50 (RXF 393): > 100 µM (inactive)
GI50 (SF-268): > 100 µM (inactive)
GI50 (SF-295): > 100 µM (inactive)
GI50 (SF-539): > 100 µM (inactive)
GI50 (SK-MEL-28): > 100 µM (inactive)
GI50 (SK-MEL-2): > 100 µM (inactive)
GI50 (SK-MEL-5): > 100 µM (inactive)
GI50 (SK-OV-3): > 100 µM (inactive)
GI50 (SN12C): > 100 µM (inactive)
GI50 (SNB-19): > 100 µM (inactive)
GI50 (SNB-75): > 100 µM (inactive)
GI50 (SNB-78): > 100 µM (inactive)
GI50 (SW-620): > 100 µM (inactive)
GI50 (U-251): > 100 µM (inactive)
GI50 (UACC-257): > 100 µM (inactive)
GI50 (UACC-62): > 100 µM (inactive)
GI50 (UO-31): > 100 µM (inactive)
GI50 (XF498): > 88.3 µM (inactive)

O=C(O)Cc1cc(=O)[nH]c2c1C(=O)CCC2
GI50 (786-0): > 100 µM (inactive)
GI50 (ACHN): > 100 µM (inactive)
GI50 (CCRF-CEM): > 100 µM (inactive)
GI50 (COLO 205): > 100 µM (inactive)
GI50 (DLD-1): > 100 µM (inactive)
GI50 (DMS-273): > 100 µM (inactive)
GI50 (EKVX): > 100 µM (inactive)
GI50 (HCC 2998): > 100 µM (inactive)
GI50 (HCT-15): > 100 µM
GI50 (HL-60): > 100 µM (inactive)
GI50 (HOP-18): > 100 µM (inactive)
GI50 (HOP-92): > 100 µM (inactive)
GI50 (HT-29): > 100 µM (inactive)
GI50 (IGROV-1): > 100 µM (inactive)
GI50 (K562): > 100 µM (inactive)
GI50 (KM-20L2): > 100 µM (inactive)
GI50 (KM12): > 100 µM (inactive)
GI50 (LXFL 529): > 100 µM (inactive)
GI50 (M14): > 100 µM (inactive)
GI50 (M19-MEL): > 100 µM (inactive)
GI50 (MOLT-4): > 100 µM (inactive)
GI50 (Malme-3M): > 100 µM (inactive)
GI50 (NCI-H226): > 100 µM (inactive)
GI50 (NCI-H23): > 100 µM (inactive)
GI50 (NCI-H460): > 100 µM (inactive)
GI50 (NCI-H522): > 100 µM (inactive)
GI50 (OVCAR-3): > 100 µM (inactive)
GI50 (OVCAR-5): > 100 µM (inactive)
GI50 (OVCAR-8): > 100 µM (inactive)
GI50 (RPMI-8226): > 100 µM (inactive)
GI50 (RXF 393): > 100 µM (inactive)
GI50 (SF-268): > 100 µM (inactive)
GI50 (SF-295): > 100 µM (inactive)
GI50 (SK-MEL-28): > 100 µM (inactive)
GI50 (SK-MEL-2): > 100 µM (inactive)
GI50 (SK-MEL-5): > 100 µM (inactive)
GI50 (SK-OV-3): > 100 µM (inactive)
GI50 (SN12C): > 100 µM (inactive)
GI50 (SNB-19): > 100 µM (inactive)
GI50 (SR): > 100 µM (inactive)
GI50 (SW-620): > 100 µM (inactive)
GI50 (TK-10): > 100 µM (inactive)
GI50 (U-251): > 100 µM (inactive)
GI50 (UACC-257): > 100 µM (inactive)
GI50 (UO-31): > 100 µM (inactive)
GI50 (XF498): > 100 µM (inactive)

Reference: ChEMBL document CHEMBL1201862, “PubChem BioAssay data set” (2004)
